{
  "source": "paper PMC3577862",
  "about": "“A Multiple Reaction Monitoring (MRM) Method to Detect Bcr-Abl Kinase Activity in CML Using a Peptide Biosensor” (PLoS ONE, 2013)",
  "key": {"[1]": {"test_system": "K562 cells", "procedure": "Biosensor peptide from samples generated as described above (in the Cell-based biosensor assay section) was captured using streptavidin-coated MagneSpheres (Promega Corporation, Madison, WI). The beads (20 µl) were prepared by washing with 0.1% Octyl-β-glucoside/PBS (3×150 µl). K562 cell lysates (200 µg total protein) were incubated with the beads on a shaker (600 rpm, 60 min). Beads were captured using a MagnaBot 96-well magnetic capture device (Promega) and washed with 0.1% Octyl-β-glucoside/PBS (3×150 µl) and deionized water (3×150 µl). Peptide was eluted using 15 µL sample buffer (ACN/H2O/TFA, 50%/50%/0.1%). 0.5 µL from each sample was co-spotted with α-cyano-4-hydroxycinnamic acid (10% w/v) containing ammonium dihydrogen phosphate (5 mg/ml), [22] dried and analyzed on a 4800 MALDI-TOF/TOF Analyzer (ABSciex). Selected ions were analyzed by MS/MS (specifying the parent ion mass for selection and CID) and sequenced de novo.\nPeptide in lysates was enriched using streptavidin-coated magnetic nanoparticles through the peptide’s biotinylated reporter segment."}, "[2]": {"biological_target": "T1, Bcr-Abl (Homo sapiens, UniProt P00519+P11274)", "T1 sequence (P11274+P00519 fused)": "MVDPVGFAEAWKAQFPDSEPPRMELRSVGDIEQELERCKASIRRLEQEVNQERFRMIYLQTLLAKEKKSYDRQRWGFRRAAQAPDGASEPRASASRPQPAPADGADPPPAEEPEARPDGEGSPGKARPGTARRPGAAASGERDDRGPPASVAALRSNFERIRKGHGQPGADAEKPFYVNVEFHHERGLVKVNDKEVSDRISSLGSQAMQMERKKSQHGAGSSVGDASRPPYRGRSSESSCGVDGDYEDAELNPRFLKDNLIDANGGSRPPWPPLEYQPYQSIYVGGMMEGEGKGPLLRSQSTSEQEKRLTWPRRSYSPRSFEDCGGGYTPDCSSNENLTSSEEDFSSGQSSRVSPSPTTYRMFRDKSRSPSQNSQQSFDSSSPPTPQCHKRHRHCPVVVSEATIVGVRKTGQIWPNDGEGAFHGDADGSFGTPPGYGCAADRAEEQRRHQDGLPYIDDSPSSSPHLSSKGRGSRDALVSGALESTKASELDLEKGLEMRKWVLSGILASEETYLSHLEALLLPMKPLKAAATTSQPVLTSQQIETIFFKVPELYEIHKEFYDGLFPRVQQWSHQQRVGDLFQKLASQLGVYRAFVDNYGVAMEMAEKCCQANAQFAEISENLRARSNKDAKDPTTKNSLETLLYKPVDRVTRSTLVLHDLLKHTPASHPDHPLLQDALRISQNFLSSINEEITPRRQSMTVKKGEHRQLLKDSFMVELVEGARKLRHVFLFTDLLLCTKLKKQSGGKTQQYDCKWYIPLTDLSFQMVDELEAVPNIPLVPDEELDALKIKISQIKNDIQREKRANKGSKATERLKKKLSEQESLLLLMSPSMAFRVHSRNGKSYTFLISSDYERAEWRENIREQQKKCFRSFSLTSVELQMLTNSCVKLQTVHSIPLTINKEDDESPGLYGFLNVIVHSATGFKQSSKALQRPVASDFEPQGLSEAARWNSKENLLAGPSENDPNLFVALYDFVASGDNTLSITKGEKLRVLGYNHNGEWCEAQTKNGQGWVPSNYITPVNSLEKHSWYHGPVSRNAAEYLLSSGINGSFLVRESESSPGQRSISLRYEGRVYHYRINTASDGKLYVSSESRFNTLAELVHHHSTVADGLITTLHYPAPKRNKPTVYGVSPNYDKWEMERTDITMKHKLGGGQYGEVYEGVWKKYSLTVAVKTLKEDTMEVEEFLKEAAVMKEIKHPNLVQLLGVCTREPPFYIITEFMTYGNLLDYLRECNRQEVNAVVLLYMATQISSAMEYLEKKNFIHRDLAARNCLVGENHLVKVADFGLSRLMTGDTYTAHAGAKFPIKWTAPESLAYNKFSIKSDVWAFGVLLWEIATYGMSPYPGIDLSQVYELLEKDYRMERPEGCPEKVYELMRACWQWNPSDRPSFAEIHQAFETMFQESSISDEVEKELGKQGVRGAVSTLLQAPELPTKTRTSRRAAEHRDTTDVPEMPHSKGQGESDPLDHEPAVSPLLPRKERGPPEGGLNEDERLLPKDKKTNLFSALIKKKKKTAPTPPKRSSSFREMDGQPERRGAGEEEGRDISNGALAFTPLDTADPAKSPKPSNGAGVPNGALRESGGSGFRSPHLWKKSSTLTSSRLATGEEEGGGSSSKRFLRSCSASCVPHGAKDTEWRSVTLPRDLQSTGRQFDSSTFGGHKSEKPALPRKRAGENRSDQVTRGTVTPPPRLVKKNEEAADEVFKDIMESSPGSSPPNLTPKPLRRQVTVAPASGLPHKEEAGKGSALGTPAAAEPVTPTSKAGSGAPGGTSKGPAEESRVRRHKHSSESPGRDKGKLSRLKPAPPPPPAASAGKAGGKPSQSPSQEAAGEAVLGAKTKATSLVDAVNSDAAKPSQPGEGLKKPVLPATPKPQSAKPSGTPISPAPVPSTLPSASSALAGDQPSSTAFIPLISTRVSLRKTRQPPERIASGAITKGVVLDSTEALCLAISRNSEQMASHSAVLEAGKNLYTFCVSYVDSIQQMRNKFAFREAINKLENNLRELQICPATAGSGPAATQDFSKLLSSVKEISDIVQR", "experiment": "Cell-based biosensor assay, MRM (LC-MS/MS) detection of biosensor phosphorylation", "details": "for phosphorylated peptide detected by MRM (in words): biosensor 5 min, alone or with imatinib or pervanadate; for phosphorylated peptide detected by MRM (in words) / phosphopeptide, 580-480 transition / unphosphorylated peptide, 540-604 transition / phosphopeptide, 580-604 transition / unphosphorylated peptide, 540-767 transition: 1 µg lysate; for phosphopeptide, 580-480 transition / unphosphorylated peptide, 540-604 transition / phosphopeptide, 580-604 transition / unphosphorylated peptide, 540-767 transition / %phospho: K562, 5 min; for phosphopeptide, 580-604 transition / unphosphorylated peptide, 540-767 transition: transition not chosen for quantitation; for %phospho: from fmol of 580-480 and 540-604"}, "[3]": {"biological_target": "T1, Bcr-Abl", "experiment": "Cell-based biosensor assay, Western blot detection (4G10 antiphosphotyrosine / streptavidin)", "design": "applied here to the disease-relevant, patient-derived CML model cell line K562; BCR N-terminal portion (fusion partner, human BCR P11274); endogenous in cells; host or cells: K562 (human CML cell line)", "details": "25 µM peptide alone, + 10 µM imatinib (1 h pre-incubation) or + 1 µM pervanadate; 5, 30, 60 min; N = 3", "experimental": "Samples of equal protein content (100 µg/lane) were diluted into Laemmli buffer and subjected to SDS-PAGE. Proteins were transferred to nitrocellulose membrane and analyzed by Western blotting. Membranes were split at the 15 kD mark and blocked in 3% milk in TBS-T overnight at 4°C, followed by blotting with the indicated antibodies in 3% milk/TBS-T. The bottom membrane was blotted with: DyLight-649 labeled Streptavidin (1∶1000, ThermoFisher Pierce) to detect total biosensor; 4G10 α-phosphotyrosine antibody to detect the phosphorylated biosensor. […] Signals of immunoblots were visualized using the Odyssey system (LiCOR Biosciences, Lincoln, NE), quantified using densitometry with Quantity One (Bio-Rad), and analyzed with GraphPad Prism software.\nWe based the peptide biosensor assay for Bcr-Abl/Abl kinase activity on our previously reported methodology, [17], [18] applied here to the disease-relevant, patient-derived CML model cell line K562. […] Lysates were processed as described in the Experimental Procedures, separated by SDS-PAGE and analyzed by Western blot using a two-color LiCOR scanner for quantitative detection of IR-dye labeled secondary antibodies and streptavidin (to measure total peptide signal via the biotinylated residue)."}, "[4]": {"test_system": "chronic myelogenous leukemia (CML) patients", "details": "CML patients on imatinib; cited from earlier work", "description": "[1] […] Approximately 90% of CML patients achieve initial remission with ..."}, "[5]": {"details": "biological replicate 1, P, P+G, P+V treatments"}, "[6]": {"details": "biological replicate 2, P, P+G, P+V treatments"}, "[7]": {"details": "biological replicate 3, P, P+G, P+V treatments"}},
  "data": [
    {"compound": "EAIYAAPFAKKK(γ-biotin)G-βNpa-GCGGAPTYSPPPPPGGRKKRRQRRRLL [Peptide]", "values": [
      {"measurement": "site of degradation of the biosensor in cells", "setting": "[1]", "result": "C-terminal degradation"},
      {"measurement": "Total (fmol), Peptide only", "setting": "[2]; K562 cells, 25 µM peptide alone, 5 min, unphosphorylated plus phosphorylated, per µg of digested lysate, MRM, mean ±SD of three replicate biological experiments", "result": "28 ± 5", "unit": "fmol"},
      {"measurement": "phosphorylated peptide detected by MRM (in words)", "setting": "[2]; K562 cells", "result": "both unphosphorylated and phosphorylated peptides were detected"},
      {"measurement": "phosphorylation of the biosensor peptide in K562 cells (Western blot, 4G10)", "setting": "[3]", "result": "phosphorylated"}
    ]},
    {"compound": "Cc1ccc(NC(=O)c2ccc(CN3CCN(C)CC3)cc2)cc1Nc1nccc(-c2cccnc2)n1", "note": "[imatinib]", "values": [
      {"measurement": "CML patients achieving initial remission with imatinib", "setting": "[4]", "result": "Approximately 90%"},
      {"measurement": "patients who never respond or develop recurrent and/or resistant disease (relapse within a few years; 1–5 years of starting treatment)", "setting": "[4]", "result": "approximately 30%"},
      {"measurement": "patients whose remission remains stable for a long period of time", "setting": "[4]", "result": "~70", "unit": "%"}
    ]},
    {"compound": "pervanadate", "values": [
      {"measurement": "Unphospho (fmol), Peptide+pervanadate", "setting": "[2]; K562 cells, 25 µM peptide + 1 µM pervanadate, 5 min, 540→604, per µg of digested lysate, mean ±SD of three replicates", "result": "14 ± 0.6", "unit": "fmol"},
      {"measurement": "Phospho (fmol), Peptide+pervanadate", "setting": "[2]; K562 cells, 25 µM peptide + 1 µM pervanadate, 5 min, 580→480, per µg of digested lysate, mean ±SD of three replicates", "result": "17 ± 12", "unit": "fmol"},
      {"measurement": "% phospho, Peptide+pervanadate", "setting": "[2]; K562 cells, 25 µM peptide + 1 µM pervanadate, 5 min, MRM, mean ±SD of three replicates", "result": "52±16", "unit": "%"},
      {"measurement": "Total (fmol), Peptide+pervanadate", "setting": "[2]; K562 cells, 25 µM peptide + 1 µM pervanadate, 5 min, unphosphorylated plus phosphorylated, per µg of digested lysate, mean ±SD of three replicates", "result": "31 ± 13", "unit": "fmol"},
      {"measurement": "phosphorylated peptide detected by MRM (in words)", "setting": "[2]; K562 cells", "result": "higher levels"},
      {"measurement": "phosphopeptide, 580-480 transition", "setting": "[2]; biological replicate 1, P = peptide alone, P+G = + imatinib, P+V = + pervanadate, corrected AUC x 1/slope", "result": 31.582, "unit": "fmol"},
      {"measurement": "unphosphorylated peptide, 540-604 transition", "setting": "[2]; [5]", "result": 14.1586, "unit": "fmol"},
      {"measurement": "phosphopeptide, 580-604 transition", "setting": "[2]; [5]", "result": 42.5934, "unit": "fmol"},
      {"measurement": "unphosphorylated peptide, 540-767 transition", "setting": "[2]; [5]", "result": 15.6618, "unit": "fmol"},
      {"measurement": "%phospho", "setting": "[2]; [5]", "result": 69.0458, "unit": "%"},
      {"measurement": "phosphopeptide, 580-480 transition", "setting": "[2]; [6]", "result": 10.229, "unit": "fmol"},
      {"measurement": "unphosphorylated peptide, 540-604 transition", "setting": "[2]; [6]", "result": 12.9195, "unit": "fmol"},
      {"measurement": "phosphopeptide, 580-604 transition", "setting": "[2]; [6]", "result": 16.5395, "unit": "fmol"},
      {"measurement": "unphosphorylated peptide, 540-767 transition", "setting": "[2]; [6]", "result": 12.6668, "unit": "fmol"},
      {"measurement": "%phospho", "setting": "[2]; [6]", "result": 44.1886, "unit": "%"},
      {"measurement": "phosphopeptide, 580-480 transition", "setting": "[2]; [7]", "result": 10.3517, "unit": "fmol"},
      {"measurement": "unphosphorylated peptide, 540-604 transition", "setting": "[2]; [7]", "result": 13.5084, "unit": "fmol"},
      {"measurement": "phosphopeptide, 580-604 transition", "setting": "[2]; [7]", "result": 16.6663, "unit": "fmol"},
      {"measurement": "unphosphorylated peptide, 540-767 transition", "setting": "[2]; [7]", "result": 11.085, "unit": "fmol"},
      {"measurement": "%phospho", "setting": "[2]; [7]", "result": 43.385, "unit": "%"},
      {"measurement": "phosphorylation of the biosensor peptide in K562 cells (Western blot, 4G10)", "setting": "[3]", "result": "stabilized"}
    ]}
  ]
}
